Reference: patent US8557770B2, “Method of preventing or reducing scarring of human skin” (Pharmecosse Ltd., priority 2000, dated 2013)
Where two headings read alike, the source gives them in different places.

Assays:
[1] = tested on: dermal fibroblast cell lines; assay: Myofibroblast number in dermal fibroblast cell lines in GFD medium with PPAR agonist; format: cell-based, human; conditions: for Mean percentage reduction in myofibroblast number compared to GFD medium alone: 14 days
From the text: Dermal fibroblast cell lines were derived from 3 patients and seeded individually onto sterile coverslips. […] Medium was refreshed twice weekly and cultures were harvested for immunohistochemical staining for α-smooth muscle actin after 14 days. The number of myofibroblasts was counted and calculated as a percentage of the total cells present, and since the ability of each cell line to differentiate into myofibroblasts varied extensively, the results were normalised as follows. Results are expressed as the mean percentage reduction in myofibroblast number for each treatment as compared to the proportion of myofibroblasts identified in GFD medium alone for that cell line. The error bars represent plus or minus one standard deviation.

PPARγ = target: T1, PPARγ (Homo sapiens, UniProt P37231); conditions: read-out: Published C50, cited from earlier work
T1 sequence (P37231 1-505): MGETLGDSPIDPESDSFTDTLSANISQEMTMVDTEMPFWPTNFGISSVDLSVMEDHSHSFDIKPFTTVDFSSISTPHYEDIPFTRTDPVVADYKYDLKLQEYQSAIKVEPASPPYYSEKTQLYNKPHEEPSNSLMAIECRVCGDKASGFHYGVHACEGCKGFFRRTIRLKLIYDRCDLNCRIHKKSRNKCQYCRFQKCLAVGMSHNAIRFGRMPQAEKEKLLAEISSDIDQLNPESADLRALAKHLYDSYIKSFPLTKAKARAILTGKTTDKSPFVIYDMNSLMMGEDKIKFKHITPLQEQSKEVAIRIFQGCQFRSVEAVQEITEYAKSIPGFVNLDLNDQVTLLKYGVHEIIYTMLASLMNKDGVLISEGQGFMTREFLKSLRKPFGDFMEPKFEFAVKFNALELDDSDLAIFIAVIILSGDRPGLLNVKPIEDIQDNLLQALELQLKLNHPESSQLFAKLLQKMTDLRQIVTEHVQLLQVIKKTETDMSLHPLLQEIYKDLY

PPAR = conditions: Table 3: other general PPAR agonists; read-out: Published C50; cited from earlier work
[2] = tested on: fibroblast cultures from burns scars; assay: In vitro myofibroblast differentiation assay (α-smooth muscle actin staining), burns scar fibroblasts; format: cell-based, human; conditions: 14 days
From the text: (§1) One of the most important cell types in both normal and pathological scar formation is the myofibroblast. These cells, which differentiate from the unwounded tissue cell type (fibroblasts), are responsible for laying down scar tissue. Indeed myofibroblasts remain present in hypertrophic scars up to four years after the original wounding event. An in vitro assay was accordingly developed to identify actives which prevent or reduce myofibroblast formation and thus identify actives which are effective in reducing and/or preventing scar tissue formation.
(§2) Fibroblast cultures were initiated from normal skin, normal scars, hypertrophic scars (HTS) and burns scars.
(§3) Each culture was split into seven parts (A to G) and grown in the following different growth media:
(§4) (A) was grown in normal growth medium (hereinafter referred to as NGM) which consisted of Dulbecco's modified Eagles Medium (DMEM) plus 10% Foetal Calf Serum (FCS);
(§5) (B) was grown in growth factor depleted medium (hereinafter referred to as GF depleted) which is NGM that is depleted of active polypeptide growth factors including TGFP. It is prepared by treating FCS with a reducing agent in order to attack and cleave the disulphide bonds that determine the conformation and thus the biological activity of the polypeptide growth factors;
(§6) (D) (D1-D4) were grown in growth factor depleted medium plus 1 ng/ml-100 ng/ml of insulin-like Growth Factor-I) (IGF-I) (hereinafter referred to as GF depleted+IGF-I); (E) (E1-E3) were grown in growth factor depleted medium plus 50 ng/ml-[…] of insulin-like Growth Factor II (IGF-II) (hereinafter referred to as GF depleted+IGFII); (F) (F1F3) were grown in growth factor depleted medium plus 25 ng/ml to 100 ng/ml of basic fibroblast growth factor (bFGF) (hereinafter referred to as GF depleted and bFGF);
(G) (G1-G3) were grown in growth factor depleted medium plus 25 ng/ml to 100 ng/ml of platelet derived growth factor (PDGF) (hereinafter referred to as GF depleted+PDGF).
(§7) The fibroblasts were grown in these media (which was replenished twice weekly) for fourteen days, fixed and stained immunohistochemically using an antibody specific for α-smooth muscle actin (a marker of myofibroblasts). The stain caused α-smooth muscle actin to fluoresce green and accordingly cells that had stained green were identified as myofibroblasts. The number of these was counted, as was the total number of cells present, and the proportion of myofibroblasts was then calculated. In this manner, the number of myofibroblasts present in each culture was determined as a percentage of the total number of cells in the culture population.

[3] = tested on: fibroblast cultures from normal scars; assay: In vitro myofibroblast differentiation assay (α-smooth muscle actin staining), normal scar fibroblasts; format: cell-based, human
From the text: as §1, §2, §3, §4, §5
as §6, with “bFGF); […]” for “bFGF);”
as §7, with “The stain caused α-smooth muscle actin to fluoresce green and accordingly cells that had stained green were identified as myofibroblasts.” left out
(§8) Fibroblast cultures were initiated from normal scars (NS) and hypertrophic scars (HTS). […] The number of myofibroblasts was calculated as a percentage of the total cell population and the results are shown in FIGS. 1 and 2 of the drawings.
(§9) Fibroblasts cultures were initiated from normal and hypertrophic scars. […] The number of myofibroblasts were counted and calculated as a percentage of the total cells present.

[4] = tested on: fibroblast cultures from hypertrophic scars (HTS); assay: In vitro myofibroblast differentiation assay (α-smooth muscle actin staining), hypertrophic scar fibroblasts; format: cell-based, human; conditions: hypertrophic scar fibroblasts
From the text: as §1, §2, §3, §4, §5
as §6, with “bFGF); […]” for “bFGF);”
as §7, with “The stain caused α-smooth muscle actin to fluoresce green and accordingly cells that had stained green were identified as myofibroblasts.” left out
as §8, §9

[5] = Table 5: natural PPARγ agonists
[6] = NGM plus 0.5 ng/ml TGFβ1, 5 days (FIG. 3)

Question: For `CCCc1c(OCCCCc2nnn[nH]2)ccc(C(C)=O)c1O` [LY171883], which Numbers of myofibroblasts ([1]; non-specific PPAR agonist) is on record?
Answer: increase the numbers of myofibroblasts

Question: Which EC50 (PPARγ; [5]) does the source give for `CCCCC/C=C\C/C=C\C/C=C\C/C=C\CCCC(=O)O` [Arachidonic acid] here?
Answer: ~20 µM

Question: For `CCCCCC=CC=C1C(=O)C=C[C@@H]1CC=CCCCC(=O)O` [15-deoxy-Δ^12,14 prostaglandin J2], which EC50 (PPARγ; [5]) is on record?
Answer: ~3 µM

Question: For `CCCc1c(OCCCOc2ccc(OCC(=O)O)cc2)ccc(C(C)=O)c1O` [L-165041], which EC50 (PPAR) is on record?
Answer: 5.5 µM

Question: With IGF-II: insulin-like Growth Factor II as the molecule, how does the “Number of myofibroblasts - percentage of total cell population” value ([2]; GF depleted medium + 50 ng/ml) read?
Answer: 37.93 percentage of total cell popul

Question: What about the “Number of myofibroblasts - percentage of total cell population” value ([2]; GF depleted medium + 100 ng/ml) of the same molecule?
Answer: 40.26 percentage of total cell popul

Question: What about the “Number of myofibroblasts - percentage of total cell population” value ([2]; GF depleted medium + 200 ng/ml) of the same molecule?
Answer: 38.52 percentage of total cell popul

Question: With `CCCCC/C=C\C/C=C\CCCCCCCC(=O)O` [Linoleic acid] as the molecule, how does the EC50 (PPARγ; [5]) read?
Answer: ~20 µM

Question: For `CCOC(=O)C(C)(C)Oc1ccc(Cl)cc1` [Clofibrate], which EC50 (PPARγ; Table 4: strong agonists for PPAR receptors other than PPARγ, weak action on PPARγ) is on record?
Answer: ~500 µM

Question: Which “Induction of myofibroblast differentiation” value [3, 6] does the source give for “TGFβ1: transforming growth factor beta 1, inducer of myofibroblast differentiation” here?
Answer: induces a rapid (within 5 days) induction of myofibroblast differentiation

Question: What about the “Induction of myofibroblast differentiation” value [4, 6] of the same molecule?
Answer: induces a rapid (within 5 days) induction of myofibroblast differentiation

Question: With `CCCCCC(O)C=CC=CCCCCCCCC(=O)O` (stereo not drawn) [13-HODE, 13-hydroxy-9,11-octadecadienoic acid] as the molecule, how does the EC50 (PPARγ; [5]) read?
Answer: ~20 µM

Question: Which “Number of myofibroblasts - percentage of total cell population” value ([2]; GF depleted medium + 25 ng/ml) does the source give for bFGF: basic fibroblast growth factor here?
Answer: 31.82 percentage of total cell popul

Question: And the “Number of myofibroblasts - percentage of total cell population” value ([2]; GF depleted medium + 100 ng/ml)?
Answer: 34.21 percentage of total cell popul

Question: With `CC1(COc2ccc(CC3SC(=O)NC3=O)cc2)CCCCC1` (racemic) [Ciglitazone, (±)-5-[4-(1-methyl-cyclohexylmethoxy)-benzyl]-thiazolidine-2,4-dione] as the molecule, how does the “Mean percentage reduction in myofibroblast number compared to GFD medium alone” value (shortened to “Mean percentage reduction”) ([1]; 0.5×10^−7M) read?
Answer: 79%

Question: What about the “Mean percentage reduction” value ([1]; 10^−6M) of the same molecule?
Answer: 57%

Question: And the “Mean percentage reduction” value ([1]; 10^−7M)?
Answer: 53%

Question: For `CC/C=C\C/C=C\C/C=C\C/C=C\C/C=C\CCCC(=O)O` [Eicosapentaenoic acid (EPA), Eicosapentaenoic acid], which EC50 (PPARγ; [5]) is on record?
Answer: ~20 µM

Question: What does the source list for IGF-I: insulin-like Growth Factor-I?
Answer: Number of myofibroblasts - percentage of total cell population ([2]; GF depleted medium + 1 ng/ml): 40.79 percentage of total cell popul; Number of myofibroblasts - percentage of total cell population ([2]; GF depleted medium + 10 ng/ml): 43.90 percentage of total cell popul; Number of myofibroblasts - percentage of total cell population ([2]; GF depleted medium + 50 ng/ml): 51.51 percentage of total cell popul; Number of myofibroblasts - percentage of total cell population ([2]; GF depleted medium + 100 ng/ml): 47.00 percentage of total cell popul

Question: What does the source list for `O=C[C@@H](O)[C@@H](O)[C@H](O)[C@H](O)COP(=O)(O)O` [mannose-6-phosphate, reference compound]?
Answer: Induction of myofibroblast differentiation in GFD medium ([3]; GFD plus 100 μM or 10 μM M-6-P, 13 days (FIG. 1)): inhibits the induction of myofibroblast differentiation; Induction of myofibroblast differentiation in GFD medium ([4]; GFD plus 100 μM or 10 μM M-6-P, 13 days (FIG. 2)): inhibits the induction of myofibroblast differentiation

Question: Which EC50 (PPARγ; [5]) does the source give for `CCCCCC=CC=CC(O)CCCCCCCC(=O)O` (stereo not drawn) [9-HODE, 9-hydroxy-10,12-octadecadienoic acid] here?
Answer: ~20 µM

Question: Which EC50 (PPARγ; [5]) does the source give for `CCCCC[C@H](O)/C=C/C=C\C/C=C\C/C=C\CCCC(=O)O` [15-HETE, 15-hydroxy-eicosatetraenoic acid] here?
Answer: ~10 µM

Question: What does the source list for PDGF?
Answer: Number of myofibroblasts - percentage of total cell population ([2]; GF depleted medium + 25 ng/ml): 50.95 percentage of total cell popul; Number of myofibroblasts - percentage of total cell population ([2]; GF depleted medium + 50 ng/ml): 52.84 percentage of total cell popul; Number of myofibroblasts - percentage of total cell population ([2]; GF depleted medium + 100 ng/ml): 53.35 percentage of total cell popul

Question: For `CC(C)(Oc1ccc(CCNC(=O)c2ccc(Cl)cc2)cc1)C(=O)O` [Bezafibrate, 2-[4-[2-[(4-chlorobenzoyl)-amino]ethyl]phenoxy]-2-methyl propanoic acid], which EC50 (PPAR) is on record?
Answer: 60 µM
